# Patent publication US6458824B1, “Solid preparation” (Dainippon Pharmaceutical Co., Ltd., priority 1999, dated 2002)
# Tests used:
# Assay type in all cases: cell-based
# [1] = target: T1, human β2-adrenergic receptor (Homo sapiens, UniProt P07550); assay: cAMP accumulation in CHO/pKREX21-8 cells highly expressing human β2-adrenergic receptor
# T1 construct: expressed in transfected cells; host or cells: CHO (clone CHO/pKREX21-8)
# Procedure: (§1) The cells were peeled off by incubation with phosphate-buffered saline containing 0.5 mM EDTA at 37° C. for 10 minutes after the medium was removed. The CHO/pKREX10-36 cells were collected by centrifugation, and suspended in Hanks' buffer (ICN Biomedicals) containing 1 mM L-ascorbic acid and 1 mM 3-isobutyl-1-methylxanthine at the concentration of about 5×10^5 cells/ml. This suspension (100 μl) and a test compound were mixed in the same buffer (500 μl) and incubated at 37° C. for 30 minutes, followed by boiling for 5 minutes to terminate the reaction. After centrifugation of the reaction mixture, the amount of cAMP in the supernatant was measured by using cAMP EIA System (Amersham).
# (§2) Similarly, the amount of cAMP was measured in the same manner by using CHO/pKREX21-8 for highly expressing human β2-adrenergic receptor, or by using CHO/pKREX23-30 for highly expressing human β1-adrenergic receptor instead of the CHO/pKREX10-36 for highly expressing human β3-adrenergic receptor.
# [2] = target: T2, human β3-adrenergic receptor (Homo sapiens, UniProt P13945); assay: cAMP accumulation in CHO/pKREX10-36 cells highly expressing human β3-adrenergic receptor
# T2 construct: expressed in transfected cells; host or cells: CHO (clone CHO/pKREX10-36)
# Procedure: as §1
# [3] = target: T3, human β1-adrenergic receptor (Homo sapiens, UniProt P08588); assay: cAMP accumulation in CHO/pKREX23-30 cells highly expressing human β1-adrenergic receptor
# T3 construct: expressed in transfected cells; host or cells: CHO (clone CHO/pKREX23-30)
# Procedure: as §1, §2
# T3 sequence (P08588 whole entry): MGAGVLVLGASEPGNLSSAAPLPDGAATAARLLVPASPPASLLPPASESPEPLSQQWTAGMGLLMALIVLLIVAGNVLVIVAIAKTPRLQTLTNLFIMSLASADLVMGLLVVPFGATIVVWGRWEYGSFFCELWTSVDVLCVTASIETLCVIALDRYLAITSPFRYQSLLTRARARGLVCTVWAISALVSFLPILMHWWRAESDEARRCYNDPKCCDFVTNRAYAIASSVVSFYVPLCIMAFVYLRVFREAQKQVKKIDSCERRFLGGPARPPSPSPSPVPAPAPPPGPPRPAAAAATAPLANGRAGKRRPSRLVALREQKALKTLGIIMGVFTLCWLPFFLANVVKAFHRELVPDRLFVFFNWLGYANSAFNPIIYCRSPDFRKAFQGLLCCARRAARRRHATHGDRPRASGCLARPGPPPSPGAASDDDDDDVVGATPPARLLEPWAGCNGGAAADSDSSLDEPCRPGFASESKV
# T2 sequence (P13945 whole entry): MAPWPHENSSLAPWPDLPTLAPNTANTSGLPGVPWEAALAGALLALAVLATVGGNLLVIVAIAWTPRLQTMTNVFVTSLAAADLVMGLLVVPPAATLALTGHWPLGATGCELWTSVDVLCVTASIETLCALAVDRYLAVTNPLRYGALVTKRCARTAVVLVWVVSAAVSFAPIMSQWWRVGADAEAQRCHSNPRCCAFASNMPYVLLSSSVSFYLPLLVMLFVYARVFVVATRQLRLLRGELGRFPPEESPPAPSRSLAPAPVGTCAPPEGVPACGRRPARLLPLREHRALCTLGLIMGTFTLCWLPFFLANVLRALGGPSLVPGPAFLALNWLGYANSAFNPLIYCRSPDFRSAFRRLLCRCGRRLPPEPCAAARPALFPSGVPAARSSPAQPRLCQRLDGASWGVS
# T1 sequence (P07550 whole entry): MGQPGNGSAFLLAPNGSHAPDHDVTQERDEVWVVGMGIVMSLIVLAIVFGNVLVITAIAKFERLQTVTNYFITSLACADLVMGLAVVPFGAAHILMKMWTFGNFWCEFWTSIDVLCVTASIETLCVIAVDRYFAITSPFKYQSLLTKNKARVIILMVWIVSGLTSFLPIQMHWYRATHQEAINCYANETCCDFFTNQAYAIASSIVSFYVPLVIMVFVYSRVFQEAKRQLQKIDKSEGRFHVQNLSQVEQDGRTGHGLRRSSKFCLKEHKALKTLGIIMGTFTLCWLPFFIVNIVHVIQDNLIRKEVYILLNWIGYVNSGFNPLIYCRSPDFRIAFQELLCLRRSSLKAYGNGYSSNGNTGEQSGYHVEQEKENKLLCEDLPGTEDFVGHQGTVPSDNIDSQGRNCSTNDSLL
structure (smiles),measurement,setting,value
"C[C@H](Cc1c[nH]c2c(OCC(=O)O)cccc12)NC[C@H](O)c1cccc(Cl)c1 [Compound A, [3-[(2R)-[[(2R)-(3-chlorophenyl)-2-hydroxyethyl]amino]propyl]-1H-indol-7-yloxy]acetic acid]",EC50,"[1]; cAMP accumulation, CHO/pKREX21-8",21 nM
same,stimulating activity of human β2-adrenergic receptor (in words),[1]; conclusion from Table 1,quite weak
same,Emax,"[1]; relative maximal response, 10^-5 M (−)-isoproterenol = 100%, read-out: β2-receptor I.A. (intrinsic activity)",45%
same,EC50,"[2]; cAMP accumulation, CHO/pKREX10-36, 37° C. 30 minutes",0.27 nM
same,stimulating activity of human β3-adrenergic receptor (in words),[2]; conclusion from Table 1,potent
same,Emax,"[2]; relative maximal response, 10^-5 M (−)-isoproterenol = 100%, read-out: β3-receptor I.A. (intrinsic activity)",110%
same,EC50,"[3]; cAMP accumulation, CHO/pKREX23-30",3.5 nM
same,stimulating activity of human β1-adrenergic receptor (in words),[3]; conclusion from Table 1,quite weak
same,Emax,"[3]; relative maximal response, 10^-5 M (−)-isoproterenol = 100%, read-out: β1-receptor I.A. (intrinsic activity)",83%
